Source: patent US11524048B2, “HMGB1 antagonist treatment of severe sepsis” (THE FEINSTEIN INSTITUTES FOR MEDICAL RESEARCH, priority 2019, dated 2022)
Several values for one entry are separate records, joined by “and”; a condition that tells them apart may be missing. Equal values may be shown once. Entries after “also recorded” stand apart in the source; their conditions may differ. Read-outs that look alike come from different tables or passages of the source.

What was measured:
[1] = rat, in vivo
[2] = test system: HMGB1-induced TNF release, human primary macrophages; conditions: Yang 2015; cited from earlier work
[3] = test system: PAMP-induced TNF release (LPS, PGN, AGE, Poly I:C), human macrophages; conditions: Yang 2015; cited from earlier work
[4] = test system: APAP-induced liver injury; conditions: cited from earlier work
[5] = test system: liver ischemia and reperfusion injury; conditions: cited from earlier work
[6] = test system: DAMP-induced TNF secretion (CIRP, SAA, PEDF, HSP 70, HSP90, H2A), human primary macrophages; assay: DAMPs-induced TNF secretion in human macrophages; assay type: cell-based; conditions: 16 hours
[7] = test system: rats; assay: Single-dose tolerability in rats; assay type: in vivo; conditions: single-dose studies with rats
[8] = test system: APAP-induced liver injury; assay: APAP-induced liver injury model in mice; assay type: in vivo, male C57BL/6 mice
[9] = test system: liver ischemia and reperfusion injury; assay: Warm liver ischemia and reperfusion (I/R) in mice; assay type: in vivo, male C57BL/6 mice
[10] = test system: CCI-induced neuropathic pain; assay: Chronic constriction injury (CCI) of the sciatic nerve neuropathic pain model in rats; assay type: in vivo, male Wistar rats
Protocol: Twenty-four male Wistar rats were separated into four groups (n=6/group) for treatment as follows [please give details concerning each of the four groups regarding procedure and treatment:
The CCI rats each received surgery. […] Mechanical and thermal sensitivity tests were also performed over time. Hargreaves Thermal Hypersensitivity test was administered to the rats as well as Von Frey mechanical hypersensitivity test.
Rats (male Wistar, 150-180 gm, n=6/group) had CCI surgery. […] Two weeks after surgery, thermal (Hargreaves) or mechanical (von Frey) hypersensitivity was assessed. *: P<0.05 vs. PBS group.
In this experiment, male Wistar rats (n=6/group) had CCI surgery. […] Mechanical allodynia was assessed 5 hours later. N=6-8 rats/group. *: p<0.05) vs. HMGB1 alone. Mechanical and thermal sensitivity tests were also performed over time.

[11] = test system: STZ-induced diabetes; assay: STZ-induced diabetes in mice; assay type: in vivo; conditions: repetitive K883 500 μg/mouse, vs PBS
Protocol: Mice were administered repetitive administration of […] (500 μg/mouse). […] Repetitive administration of […] was therefore shown to be beneficial in STZ-induced diabetes. […] (*: P<0.05 vs. PBS group. N=6-8 mice per group).

[12] = up to 6 hours, versus P5779
[13] = Pharmacokinetics after intravenous administration to rats (LC-MS)

NC(=O)[C@H](CCC(=O)O)NC(=O)[C@H](CO)NC(=O)[C@H](CO)NC(=O)[C@@H](N)Cc1ccccc1 [P5779]
half-life in serum (FIG. 23) [1]: undetectable | HMGB1-induced TNF release from macrophages [2]: inhibit HMGB1-induced TNF release from macrophages in a concentration-dependent manner | TNF release in macrophages stimulated by LPS, PGN, Poly I:C, CpG DNA or S100 A12 [3]: not suppress TNF release | liver necrosis / liver injury (H&E histology) ([4]; APAP 350 mg/kg, P5779 50 or 500 μg/mouse IP at 2 and 7 hours, vs scrambled control peptide): reduced APAP-mediated liver injury; also recorded: reduced liver necrosis | percent survival post-APAP ([4]; APAP 400 mg/kg, P5779 500 μg/mouse IP once a day 5 days, 2 weeks, vs scrambled control peptide): increased survival; also recorded: significantly improved | serum ALT ([4]; P5779 500 ugs/mouse, comparative data): significant reductions in ALT | serum levels of ALT and AST / tissue damage ([5]; P5779 500 μg/mouse IP at time of I/R surgery, 6 hours): reduced | liver H&E staining: inflammation (neutrophil infiltration) ([5]; P5779, 6 hours after reperfusion, vs vehicle): reduced inflammation

NC(=O)N(CCC(=O)O)NC(=O)[C@H](CO)NC(=O)[C@H](CO)NC(=O)N(N)Cc1ccccc1 [K883]
TNF secretion induced by other DAMPs [6]: is not inhibited | tolerability [7]: well-tolerated | serum ALT ([8]; 50 ug/mouse, vs vehicle controls): reduced serum ALT | liver necrosis / liver injury (H&E histology) ([8]; APAP 350 mg/kg IP, K883 50 μg/mouse IP at 2 and 7 hours post-APAP, 24 hours): reduces APAP-induced liver injury; also recorded: reduced liver necrosis | mice surviving the toxicity of APAP ([8]; APAP 400 mg/kg, 50 μg/mouse IP once-a-day for 5 days from 2 hours post-APAP, 2 weeks, control group 8): 14 mice out of 15 | percent survival post-APAP ([8]; APAP 400 mg/kg, K883 50 μg/mouse IP once-a-day 5 days, 2 weeks): improved survival outcome; also recorded: significant improvement | liver H&E staining: inflammation (neutrophil infiltration) ([9]; K883, 6 hours after reperfusion, vs vehicle control): reduced inflammation | protection against hepatic ischemia/reperfusion injury ([9]; mice): protected mice against hepatic ischemia/reperfusion injury | CCI-induced CXCL1 and TNF expression (DRGs) ([10]; DRGs): reduces CCI-induced CXCL1 and TNF expression | CCI-induced thermal and/or mechanical hypersensitivity (neuropathy) ([10]; Hargreaves / von Frey, K883 800 μg/rat IP once a day for 3 days): improved CCI-induced thermal and mechanical hypersensitivity; also recorded: effectively reduces peripheral neuropathy; also recorded: ameliorated both mechanical and thermal hypersensitivity; also recorded: ameliorated the thermal hypersensitivity | CCI-induced CXCL1, TNF and IL-1β expression (spine) ([10]; spine): reduces CCI-induced CXCL1, TNF and IL-1β expression | hyperglycemia [11]: delays hyperglycemia | insulitis [11]: reduces insulitis | weight gain [11]: improves weight gain | structural stability in mouse serum [12]: retains structural stability for a longer period of time | AUCss ([13]; IV 1 mg/kg, individual rats, 1 mg/kg): 3776 ng·h/mL and 3808 ng·h/mL and 3751 ng·h/mL | AUCss, Mean ([13]; IV 1 mg/kg, mean of 3 rats): 3778 ng·h/mL | half-life in serum (FIG. 23) ([13]; rat, in vivo): longer half-life in serum
